Experimental findings from patent US9572788B2, “Cell permeable inhibitors of anaphase promoting complex” (President and Fellows of Harvard College, priority 2014, dated 2017) are described below.

The nature of series [1]: ProTAME activation analysis (LC/MS) in extract. The class given is in vitro ADME. Particulars: 50 μM in interphase Xenopus extract. The method, then:
(§1) ProTAME was added to interphase Xenopus extract at 50 μM or cell growth media at 20 μM. For interphase extract, 800 μl of sample was collected at 0 min, 10 min, 20 min and 30 min after addition of proTAME and diluted to 8 ml with XB. For cell culture, approximately 800,000 cells were collected at 1 h, 2 h and 3 h after addition of proTAME and lysed in 400 μl lysis buffer as described above and subsequently diluted to 4 ml with lysis buffer. The diluted extract or cell lysate was extracted with 1.5 volume of ethyl acetate. The extracts were dried in vacuo and the dry extracts were resuspended in 200 μl of methanol for LC/MS analysis. LC/MS data were obtained using an Agilent series 1200 LC/6130 MS system with a reversed-phase C18 column (Phenomenex Luna C18(2), 4.6 mm×100 mm, 5 μm) and a CH3CN/H2O gradient solvent system beginning with 10% aqueous CH3CN and ending at 100% CH3CN at 20 min. 10 μl of each sample was injected for each analysis.

Series [2] relates to HeLa cells. The series is described as follows: Endogenous APC substrate levels by immunoblot in synchronized HeLa cells. To be noted: 12 μM. The class given is cell-based, human. The procedure:
FIG. 1E is a series of photographs of gel electrophoresis analysis showing that proTAME stabilizes endogenous APC substrates. HeLa cells were synchronized by double thymidine procedure and released into compounds (12 μM). Protein levels were measured by immunoblot.

Series [3] relates to HeLa H2B-GFP cells. The series is described as follows: Emi1 knockdown and proTAME rescue. It is filed as cell-based, human. Particulars: 12 μM. The procedure:
HeLa H2B-GFP cells were plated in glass-bottom 24-well plates at 20% confluence one day prior to the experiment. Cells were transfected with a pool of Emi1 siRNA (Dharmacon M-012434-01, 5′-[…]-3′ (SEQ ID NO: 4); 5′-[…]-3′ (SEQ ID NO: 5); 5′-[…]-3′ (SEQ ID NO: 6); 5′-[…]-3′ (SEQ ID NO: 7)) or Control#3 siRNA (described above) at 18.5 nM with DharmaFect3. After 24 h, cells were treated with 0.06% DMSO or 12 μM proTAME. Live cell imaging was set up as described above.

The target in series [4] is APC (Xenopus laevis, UniProt A0A1L8ESF3). The series is described as follows: Cyclin B1-luciferase reporter degradation (luciferase assay) in mitotic Xenopus egg extract. It is filed as biochemical. Particulars: mitotic Xenopus extract. On the technique in general: In a reporter assay the amount or activity of a reporter protein is the signal.
Method: The extract was incubated at room temperature and 3 μL samples were taken at 0, 20, 40 and 60 min.
For series [5], the system named is HeLa H2B-GFP cells. The series is described as follows: Mitotic entry monitored by time-lapse imaging. The class given is cell-based, human. Particulars: for Average time of mitotic entry / Median time of mitotic entry: Fig 4E.
Series [6] concerns the target T1, APC (Homo sapiens, UniProt P30260).
T1 construct: endogenous in cells; host or cells: HeLa cells (synchronised; some with Mad2/BubR1 siRNA and cyclin B1-delta107 adenovirus)
The series is described as follows: Cdc20/Cdh1 binding assay in HeLa cells (APC immunoprecipitation). The class given is cell-based. The method, then: HeLa cells in DMEM 10% FBS were plated in T25 flasks at 20% confluence one day prior to the experiment. They were then synchronized by a double thymidine block (18 h for the first block, 8 h release and another 18 h for the second block, thymidine concentration: 2 mM). For analysis of Cdh1 binding, cells were released into […] from the second thymidine block for 13 h and then washed into fresh medium. Six h later, cells were treated with 12 μM proTAME or proAAME or 0.06% DMSO for 2 h and then collected by trypin digestion. For analysis of Cdc20 binding, cells were transfected with indicated siRNAs during the first release from thymidine block after two washes with DPBS (CellGro 21-030-CV) and addition of 6.3 ml OptiMEM. A volume (79 μl) of 20 μl Control siRNA#3 or a 1:1 mix of 20 μl MAD2 siRNA and BubR1 siRNA (Dharmacon D-004101-01, 5′-[…]-3′ (SEQ ID NO: 11)) was mixed in 1381 μl OptiMEM in a tube, 23.7 μl OligoFectamine were mixed with 94.1 μl OptiMEM in a second tube. After 5 min incubation at RT, the tubes contents were mixed and siRNA-reagent complexes were allowed to form for 20 min at RT. The transfection mixes were added to cells in OptiMEM and FBS was added to 10% after 5 h transfection. Cyclin B1-Δ107 expressing adenovirus (1:100) was added at the start of the second thymidine block and kept in the medium for all subsequent steps. Cells were treated at 10 h after release with 100 nM okadaic acid, 25 μg/ml cycloheximide and 12 μM proTAME as indicated. After 2 h treatment, cells were collected by mitotic shake-off. Cell pellets were washed twice with DPBS and flash-frozen with liquid nitrogen and stored at −80° C. until use. Cell lysis and APC immunoprecipitation were performed as described above.

Series [7] in a line: Effect on mitosis in MCF10a cells. It is filed as cell-based. Particulars: similar doses.
Series [8] relates to HeLa cells. The series is described as follows: ProTAME activation analysis (LC/MS) in HeLa cells. To be noted: 20 μM. The class given is in vitro ADME, human. The procedure: as §1
Setting [9] is: 12 μM proTAME added at 0 hr after release from thymidine block.
[10] abbreviates: 12 μM proTAME added at 2 hrs after release.
Setting [11] is: 12 μM proTAME added at 4 hrs after release.
Setting [12] is: 12 μM proTAME added at 6 hrs after release.
Setting [13] is: 12 μM proTAME added at 8 hrs after release.

T1 sequence (P30260 whole entry): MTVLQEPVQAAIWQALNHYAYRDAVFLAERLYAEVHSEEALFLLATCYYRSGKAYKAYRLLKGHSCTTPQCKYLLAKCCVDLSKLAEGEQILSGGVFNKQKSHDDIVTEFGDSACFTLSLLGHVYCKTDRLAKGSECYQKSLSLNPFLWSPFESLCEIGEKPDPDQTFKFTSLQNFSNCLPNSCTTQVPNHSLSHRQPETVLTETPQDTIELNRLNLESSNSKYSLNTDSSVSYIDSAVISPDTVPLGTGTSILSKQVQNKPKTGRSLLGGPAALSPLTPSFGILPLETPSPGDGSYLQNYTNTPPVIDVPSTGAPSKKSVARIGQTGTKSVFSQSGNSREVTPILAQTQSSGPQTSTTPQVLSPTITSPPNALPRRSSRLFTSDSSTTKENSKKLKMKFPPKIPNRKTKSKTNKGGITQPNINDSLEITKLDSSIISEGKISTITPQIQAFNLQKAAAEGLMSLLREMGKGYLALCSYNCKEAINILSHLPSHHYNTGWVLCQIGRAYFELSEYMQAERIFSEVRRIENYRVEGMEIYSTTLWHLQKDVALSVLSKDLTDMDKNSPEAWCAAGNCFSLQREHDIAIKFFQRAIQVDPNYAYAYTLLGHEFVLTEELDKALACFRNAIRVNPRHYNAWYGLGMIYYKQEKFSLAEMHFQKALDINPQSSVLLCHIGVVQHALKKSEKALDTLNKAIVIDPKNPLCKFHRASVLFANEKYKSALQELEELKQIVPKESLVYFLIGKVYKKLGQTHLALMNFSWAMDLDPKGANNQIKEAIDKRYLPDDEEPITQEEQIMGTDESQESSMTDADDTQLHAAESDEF
Sequence of APC (Xenopus laevis, UniProt A0A1L8ESF3) (A0A1L8ESF3 entry or part of it): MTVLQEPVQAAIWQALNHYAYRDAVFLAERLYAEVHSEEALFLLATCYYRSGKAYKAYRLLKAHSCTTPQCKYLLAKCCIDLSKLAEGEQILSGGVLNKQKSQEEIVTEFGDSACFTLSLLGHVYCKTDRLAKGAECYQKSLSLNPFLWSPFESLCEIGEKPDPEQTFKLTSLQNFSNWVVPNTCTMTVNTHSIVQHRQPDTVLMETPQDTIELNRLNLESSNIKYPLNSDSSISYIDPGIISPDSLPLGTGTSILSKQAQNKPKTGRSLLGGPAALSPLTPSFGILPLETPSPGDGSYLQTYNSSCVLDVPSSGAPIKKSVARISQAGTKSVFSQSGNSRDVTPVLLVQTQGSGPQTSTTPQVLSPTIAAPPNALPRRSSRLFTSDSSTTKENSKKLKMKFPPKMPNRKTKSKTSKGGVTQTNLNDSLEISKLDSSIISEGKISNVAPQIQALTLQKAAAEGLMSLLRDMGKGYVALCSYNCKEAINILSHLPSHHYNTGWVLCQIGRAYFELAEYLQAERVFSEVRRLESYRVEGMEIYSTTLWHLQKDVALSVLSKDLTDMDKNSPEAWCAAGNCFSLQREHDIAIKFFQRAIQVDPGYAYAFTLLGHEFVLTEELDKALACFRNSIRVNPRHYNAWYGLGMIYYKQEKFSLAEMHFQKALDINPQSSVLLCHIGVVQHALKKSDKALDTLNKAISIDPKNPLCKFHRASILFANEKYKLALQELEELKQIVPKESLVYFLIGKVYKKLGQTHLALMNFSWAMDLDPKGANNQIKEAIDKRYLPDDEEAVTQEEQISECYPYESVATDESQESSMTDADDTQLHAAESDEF
Sequence of APC (Xenopus laevis, UniProt A0A1L8ESF3) (Q6DFD4 entry or part of it, further chain): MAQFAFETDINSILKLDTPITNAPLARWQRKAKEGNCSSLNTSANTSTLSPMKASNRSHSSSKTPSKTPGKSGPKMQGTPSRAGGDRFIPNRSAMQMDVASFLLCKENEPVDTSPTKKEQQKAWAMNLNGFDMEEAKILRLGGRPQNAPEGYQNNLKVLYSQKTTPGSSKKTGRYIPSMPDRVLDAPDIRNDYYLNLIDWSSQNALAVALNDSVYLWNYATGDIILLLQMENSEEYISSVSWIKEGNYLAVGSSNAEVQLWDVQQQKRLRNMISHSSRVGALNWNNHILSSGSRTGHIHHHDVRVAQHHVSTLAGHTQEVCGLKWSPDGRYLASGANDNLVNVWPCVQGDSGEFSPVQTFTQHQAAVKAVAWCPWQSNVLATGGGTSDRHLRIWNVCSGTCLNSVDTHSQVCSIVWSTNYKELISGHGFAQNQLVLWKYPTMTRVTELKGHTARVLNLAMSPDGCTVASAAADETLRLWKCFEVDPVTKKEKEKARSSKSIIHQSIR

`COC(=O)[C@H](CCCN/C(=N\C(=O)OCOC(=O)Cc1ccccc1)NC(=O)OCOC(=O)Cc1ccccc1)NS(=O)(=O)c1ccc(C)cc1` [proTAME]: the “Conversion of prodrug to TAME” value in series [1] was “rapidly converted to TAME”. Further, in series [2], the “Stabilization of endogenous cyclin B and securin” value is listed as “dramatically stabilized”. The “Rescue of mitotic entry defect in Emi1-depleted cells” value in series [3] is reported as “substantially rescued the mitotic entry defect caused by depletion of Emi1”. Moreover, in series [4], the “Inhibition of cyclin B-luciferase proteolysis” value is reported as “efficiently inhibits cyclin B-luciferase proteolysis”. Also, the “Average time of mitotic entry” value in series [5] (setting [9]) came out at 712.8 min; in series [5] (setting [10]) it was 669.0 min; in series [5] (setting [11]) it was 636.6 min; in series [5] (setting [12]), 619.4 min; in series [5] (setting [13]) it was 622.6 min. Besides, the “Median time of mitotic entry” value in series [5] (setting [9]) is given as 696 min; in series [5] (setting [10]), 660 min; in series [5] (setting [11]), 624 min; in series [5] (setting [12]), 612 min; in series [5] (setting [13]) it was 612 min. The “Delay in mitotic entry” value in series [5] (added 6 hour or later after release) was “did not delay mitotic entry”; in series [5] (added during release from a double thymidine block) it was 2 h. Moreover, the “Dissociation of Cdc20 from the APC” value in series [6] (HeLa arrested by nondegradable cyclin B, 12 μM) is on record as “induced significant dissociation of Cdc20 from the APC, but only if SAC proteins were depleted by RNAi”. Also, in series [6] (HeLa cells in G1, 12 μM), the “Cdh1 association with the APC” value is recorded as “inhibited Cdh1 association with the APC”. The “Reduction in Cdc20 binding to the APC” value in series [6] (HeLa, 12 μM plus 10 μM MG132 for 2 hours) is on record as 30%. Moreover, in series [7], the “Effect on mitotic duration” value was “had no effect”. In series [8], the Activation of prodrug entry was “activated efficiently in HeLa cells”.
